Test results reported in ChEMBL document CHEMBL5096235, “In Silico Exploration and Biological Evaluation of Bispecific Peptides Derived from Anti-HER2 Antibodies and Peptide-Camptothecin Conjugates for HER2-Positive Breast Cancer” (J Med Chem, 2022).
pIC50, pKd: −log10 of the molar value. Calls of active or inactive are those of the source. The calls are words filed in the database; no cut-off is given here. Residues, ends and D or L forms follow the SMILES beside them. *: point of attachment. S(CH2)2OCO2(CPT-20-yl) = CC[C@@]1(OC(=O)OCCS*)C(=O)OCc2c1cc1n(c2=O)Cc2cc3ccccc3nc2-1

Columns and labels:
SK-BR-3 [1] = assay: Induction of apoptosis in human SK-BR-3 cells assessed as late apoptotic cells at 2 uM incubated for 24 hrs by Annexin V-FITC/PI staining based flow cytometry analysis (Rvb= 5.02%); type: functional
[2] = Cytotoxicity against human MCF-10A cells assessed as inhibition of cell growth incubated for 48 hrs by MTT assay; type: toxicity, cell-based
[3] = […] in nude mouse xenografted with human SK-BR-3 cells assessed as effect on aspartate aminotransferase level at 8 micromol/kg, iv administered every 3 days for 14 days; type: organism-based; details: in vivo, 336 h, dose 8 µmol/kg, time 14 day
SK-BR-3 [4] = assay: Antitumor activity against human SK-BR-3 cells xenografted in nude mouse assessed as reduction in tumor growth at 8 umol/kg, iv administered every 3 days for 14 days and measured every 2 days; type: functional, organism-based; details: dose 8.0 µmol/kg, time 14.0 day
[5] = Toxicity in nude mouse xenografted with human SK-BR-3 cells assessed as spleen damage at 8 micromol/kg, iv administered every 3 days for 14 days by H and E staining based analysis; type: organism-based; details: in vivo, 336 h, dose 8 µmol/kg, time 14 day
[6] = target: Epidermal growth factor receptor and ErbB2 (HER1 and HER2) (Homo sapiens) (UniProt P04626+P00533); assay: Inhibition of EGFR/HER2 heterodimerization in human SK-BR-3 cells at 10 uM preincubated for 4 hrs followed by EGF addition for 20 mins by immunoprecipitation analysis; type: cell-based; details: time 260.0 min
[7] = target: T1, Receptor tyrosine-protein kinase erbB-2 (Homo sapiens, UniProt P04626); assay: Binding affinity to HER2 in HER-positive human SK-BR-3 cells assessed as increase in fluorescence intensity at 25 uM by Hoechst 33342 staining based confocal microscopic analysis; type: cell-based
T1 sequence (P04626 whole entry): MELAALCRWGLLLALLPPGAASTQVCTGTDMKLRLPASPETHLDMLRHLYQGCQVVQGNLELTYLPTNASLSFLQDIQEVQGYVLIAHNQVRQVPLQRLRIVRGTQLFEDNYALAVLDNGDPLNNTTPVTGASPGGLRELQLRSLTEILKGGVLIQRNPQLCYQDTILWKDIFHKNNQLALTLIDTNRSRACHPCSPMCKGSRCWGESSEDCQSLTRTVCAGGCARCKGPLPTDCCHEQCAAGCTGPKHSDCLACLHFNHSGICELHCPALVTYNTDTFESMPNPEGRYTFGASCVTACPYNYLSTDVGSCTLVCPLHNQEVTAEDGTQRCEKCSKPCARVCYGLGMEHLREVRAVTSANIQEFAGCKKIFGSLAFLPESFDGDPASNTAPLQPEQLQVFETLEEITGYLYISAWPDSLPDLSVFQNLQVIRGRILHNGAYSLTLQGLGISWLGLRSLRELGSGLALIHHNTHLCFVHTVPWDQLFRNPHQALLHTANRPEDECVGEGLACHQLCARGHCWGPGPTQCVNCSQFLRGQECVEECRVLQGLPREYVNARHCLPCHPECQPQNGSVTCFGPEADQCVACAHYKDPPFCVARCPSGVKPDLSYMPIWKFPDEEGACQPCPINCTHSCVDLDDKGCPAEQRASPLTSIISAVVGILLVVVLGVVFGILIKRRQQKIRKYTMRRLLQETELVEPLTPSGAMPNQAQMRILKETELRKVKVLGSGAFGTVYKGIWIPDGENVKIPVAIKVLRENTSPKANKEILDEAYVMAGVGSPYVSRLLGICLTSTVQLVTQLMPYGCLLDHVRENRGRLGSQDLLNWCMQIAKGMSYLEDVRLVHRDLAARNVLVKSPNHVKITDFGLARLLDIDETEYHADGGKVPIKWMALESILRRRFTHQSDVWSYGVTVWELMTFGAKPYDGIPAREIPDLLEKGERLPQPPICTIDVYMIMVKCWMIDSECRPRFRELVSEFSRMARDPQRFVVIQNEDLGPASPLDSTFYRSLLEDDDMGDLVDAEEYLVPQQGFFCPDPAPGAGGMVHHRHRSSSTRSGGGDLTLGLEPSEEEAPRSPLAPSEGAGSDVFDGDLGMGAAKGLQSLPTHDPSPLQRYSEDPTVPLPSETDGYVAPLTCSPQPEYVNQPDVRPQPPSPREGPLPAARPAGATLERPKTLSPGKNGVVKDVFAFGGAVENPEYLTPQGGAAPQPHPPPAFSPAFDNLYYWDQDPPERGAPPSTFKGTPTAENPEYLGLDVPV

[8] = Toxicity in nude mouse xenografted with human SK-BR-3 cells assessed as reduction in body weight at 8 umol/kg, iv administered every 3 days for 14 days; type: organism-based; details: in vivo, 336 h, dose 8 µmol/kg, time 14 day
[9] = Renal toxicity in nude mouse xenografted with human SK-BR-3 cells assessed as effect on blood urea nitrogen level at 8 micromol/kg, iv administered every 3 days for 14 days; type: organism-based; details: in vivo, 336 h, dose 8 µmol/kg, time 14 day
SK-BR-3 [10] = assay: Induction of cell cycle arrest in human SK-BR-3 cells assessed as accumulation of cells at S phase at 2 uM incubated for 24 hrs by flow cytometry analysis (reference value: 23%); type: functional
SK-BR-3 [11] = assay: Induction of apoptosis in human SK-BR-3 cells assessed as live cells at 1 uM incubated for 24 hrs by Annexin V-FITC/PI staining based flow cytometry analysis (Rvb= 89.4%); type: functional
[12] = Toxicity in nude mouse xenografted with human SK-BR-3 cells assessed as effect on albumin level at 8 micromol/kg, iv administered every 3 days for 14 days; type: organism-based; details: in vivo, 336 h, dose 8 µmol/kg, time 14 day
[13] = Toxicity in nude mouse xenografted with human SK-BR-3 cells assessed as inflammatory cell infiltration at 8 micromol/kg, iv administered every 3 days for 14 days by H and E staining based analysis; type: organism-based; details: in vivo, 336 h, dose 8 µmol/kg, time 14 day
[14] = Toxicity in nude mouse xenografted with human SK-BR-3 cells assessed as effect on alkaline phosphatase level at 8 micromol/kg, iv administered every 3 days for 14 days; type: organism-based; details: in vivo, 336 h, dose 8 µmol/kg, time 14 day
SK-OV-3 = assay: Cytotoxicity against HER-positive human SK-OV-3 cells assessed as inhibition of cell growth incubated for 48 hrs by MTT assay; type: functional, cell-based; details: SK-OV-3, 48 h
[15] = target: T1, Receptor tyrosine-protein kinase erbB-2; assay: Binding affinity to recombinant HER2 (unknown origin) assessed as dissociation constant by SPR analysis
[16] = Toxicity in nude mouse xenografted with human SK-BR-3 cells assessed as liver damage at 8 micromol/kg, iv administered every 3 days for 14 days by H and E staining based analysis; type: organism-based; details: in vivo, 336 h, dose 8 µmol/kg, time 14 day
[17] = Toxicity in nude mouse xenografted with human SK-BR-3 cells assessed as cellular necrosis at 8 micromol/kg, iv administered every 3 days for 14 days by H and E staining based analysis; type: organism-based; details: in vivo, 336 h, dose 8 µmol/kg, time 14 day
SK-BR-3 [18] = assay: Induction of apoptosis in human SK-BR-3 cells assessed as early apoptotic cells at 2 uM incubated for 24 hrs by Annexin V-FITC/PI staining based flow cytometry analysis (Rvb= 4.37%); type: functional
[19] = Drug metabolism in human SK-BR-3 cells assessed as camptothecin release at 50 uM measured after 4 hrs by LC-MS/MS analysis; type: ADME, cell-based; details: sk-br-3, 4 h
[20] = Metabolic stability in Sprague-Dawley rat plasma assessed as drug degradation incubated for 120 mins by LC-MS/MS analysis; type: ADME, cell-free; details: 2 h
SK-BR-3 [21] = assay: Induction of apoptosis in human SK-BR-3 cells assessed as live cells at 2 uM incubated for 24 hrs by Annexin V-FITC/PI staining based flow cytometry analysis (Rvb= 89.4%); type: functional
[22] = target: T2, DNA topoisomerase 1 (Homo sapiens) (UniProt P11387); assay: Inhibition of topoisomerase 1 (unknown origin) assessed as relaxation of supercoiled plasmid pBR322 DNA at 100 uM preincubated for 20 mins followed by pBR322 DNA addition and measured after 30 mins by agarose gel electrophoresis analysis; details: time 50.0 min
T2 sequence (whole entry): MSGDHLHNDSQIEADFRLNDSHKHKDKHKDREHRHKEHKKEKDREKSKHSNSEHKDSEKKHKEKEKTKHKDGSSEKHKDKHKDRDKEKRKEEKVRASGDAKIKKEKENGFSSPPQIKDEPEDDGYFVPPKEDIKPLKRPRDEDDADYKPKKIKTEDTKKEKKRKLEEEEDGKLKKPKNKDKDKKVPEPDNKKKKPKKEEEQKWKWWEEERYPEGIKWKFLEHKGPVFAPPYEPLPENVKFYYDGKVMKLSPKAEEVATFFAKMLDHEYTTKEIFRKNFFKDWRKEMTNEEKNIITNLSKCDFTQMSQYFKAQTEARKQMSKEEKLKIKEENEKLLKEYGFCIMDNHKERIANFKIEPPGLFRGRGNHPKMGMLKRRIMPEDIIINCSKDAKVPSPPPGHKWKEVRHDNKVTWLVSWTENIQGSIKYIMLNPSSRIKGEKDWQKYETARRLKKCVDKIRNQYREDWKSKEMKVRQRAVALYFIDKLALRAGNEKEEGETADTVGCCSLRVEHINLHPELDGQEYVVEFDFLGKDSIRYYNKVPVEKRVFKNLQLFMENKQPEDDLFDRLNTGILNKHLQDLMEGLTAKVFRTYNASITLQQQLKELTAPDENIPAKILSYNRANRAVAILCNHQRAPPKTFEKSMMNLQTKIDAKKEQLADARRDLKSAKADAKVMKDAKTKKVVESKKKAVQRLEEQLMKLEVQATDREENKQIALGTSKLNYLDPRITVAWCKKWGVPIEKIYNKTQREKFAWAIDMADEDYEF

[23] = Metabolic stability in Sprague-Dawley rat plasma assessed as half life incubated for 120 mins by LC-MS/MS analysis; type: ADME, cell-free
[24] = […] in nude mouse xenografted with human SK-BR-3 cells assessed as effect on alanine aminotransferase level at 8 micromol/kg, iv administered every 3 days for 14 days; type: organism-based; details: in vivo, 336 h, dose 8 µmol/kg, time 14 day
SK-BR-3 [25] = assay: Induction of apoptosis in human SK-BR-3 cells assessed as late apoptotic cells at 1 uM incubated for 24 hrs by Annexin V-FITC/PI staining based flow cytometry analysis (Rvb= 5.02%); type: functional
SK-BR-3 [26] = assay: Induction of apoptosis in human SK-BR-3 cells assessed as early apoptotic cells at 1 uM incubated for 24 hrs by Annexin V-FITC/PI staining based flow cytometry analysis (Rvb= 4.37%); type: functional

SMILES | Activity (SK-BR-3 [1]) [%] | IC50 at 48 h [2] [nM] | Activity [3] | Activity (SK-BR-3 [4]) | Activity [5] | inhibition [6] | Activity [7] | Activity [8] | Activity [9] | Activity (SK-BR-3 [10]) [%] | Activity (SK-BR-3 [11]) [%] | Activity [12] | Activity [13] | Activity [14] | pIC50 (SK-OV-3) | pKd [15] | Activity [16] | Activity [17] | Activity (SK-BR-3 [18]) [%] | Drug metabolism [19] | other results
CC[C@H](C)[C@H](NC(=O)[C@@H](N)CCCNC(=N)N)C(=O)N[C@@H](CCCCN)C(=O)N1CCC[C@H]1C(=O)N[C@@H](CCCNC(=N)N)C(=O)N[C@@H](CCCCN)C(=O)NCC(=O)N[C@@H](Cc1ccc(O)cc1)C(=O)N[C@H](C(=O)N[C@@H](CCCNC(=N)N)C(=O)NCC(=O)N[C@@H](CSSCCOC(=O)O[C@]1(CC)C(=O)OCc2c1cc1n(c2=O)Cc2cc3ccccc3nc2-1)C(=O)NCC(=O)N[C@@H](CSSCCOC(=O)O[C@]1(CC)C(=O)OCC2=C1C=C1c3nc4ccccc4cc3NC1C2=O)C(=O)NC(=O)C[C@H](NC(=O)CN)C(=O)N1CCC[C@H]1C(=O)N[C@@H](CC(N)=O)C(=O)N[C@@H](Cc1c[nH]c2ccccc12)C(=O)NCC(=O)N[C@@H](CCCNC(=N)N)C(=O)N[C@@H](CO)C(=O)N[C@@H](Cc1c[nH]c2ccccc12)C(=O)N[C@@H](Cc1ccc(O)cc1)C(=O)N[C@@H](CC(N)=O)C(=O)N[C@@H](CCC(N)=O)C(=O)N[C@@H](CCCNC(=N)N)C(=O)N[C@@H](Cc1ccccc1)C(=O)N[C@@H](CCCCN)C(N)=O)[C@@H](C)O (some centres undefined) | 14 | 17100 | Non-Toxic | Active | Non-Toxic | Active | Active | Non-Toxic | Toxic | 49.2 | 51.2 | Non-Toxic | Non-Toxic | Non-Toxic | 5.90 | 6.36 | Non-Toxic | Non-Toxic | 41 | Metabolite_Detected | Stability [20]: Unstable; Activity (SK-BR-3 [21]): 44.7%; inhibition [22]: Active; half-life [23]: 15 min; Activity [24]: Non-Toxic; Activity (SK-BR-3 [25]): 8.5%; Activity (SK-BR-3 [26]): 39.8%
CC[C@H](C)[C@H](NC(=O)[C@@H](N)CCCNC(=N)N)C(=O)N[C@@H](CCCCN)C(=O)N1CCC[C@H]1C(=O)N[C@@H](CCCNC(=N)N)C(=O)N[C@@H](CCCCN)C(=O)NCC(=O)N[C@@H](Cc1ccc(O)cc1)C(=O)N[C@H](C(=O)N[C@@H](CCCNC(=N)N)C(=O)NCC(=O)N[C@@H](CSSCCOC(=O)O[C@]1(CC)C(=O)OCc2c1cc1n(c2=O)Cc2cc3ccccc3nc2-1)C(=O)NCC(=O)N[C@@H](CC(N)=O)C(=O)N1CCC[C@H]1C(=O)N[C@@H](CC(N)=O)C(=O)N[C@@H](Cc1c[nH]c2ccccc12)C(=O)NCC(=O)N[C@@H](CCCNC(=N)N)C(=O)N[C@@H](CO)C(=O)N[C@@H](Cc1c[nH]c2ccccc12)C(=O)N[C@@H](Cc1ccc(O)cc1)C(=O)N[C@@H](CC(N)=O)C(=O)N[C@@H](CCC(N)=O)C(=O)N[C@@H](CCCNC(=N)N)C(=O)N[C@@H](Cc1ccccc1)C(=O)N[C@@H](CCCCN)C(N)=O)[C@@H](C)O (H-RIKPRKGYTRGC(S(CH2)2OCO2(CPT-20-yl))GNPNWGRSWYNQRFK-NH2) | 10.8 | 23900 | Non-Toxic | Active | Non-Toxic | Active | Active | Non-Toxic | Non-Toxic | 48.5 | 57.6 | Non-Toxic | Non-Toxic | Non-Toxic | 5.37 | 6.48 | Non-Toxic | Non-Toxic | 39.4 | Metabolite_Detected | Stability [20]: Unstable; Activity (SK-BR-3 [21]): 49.1%; inhibition [22]: Active; half-life [23]: 15 min; Activity [24]: Non-Toxic; Activity (SK-BR-3 [25]): 7.25%; Activity (SK-BR-3 [26]): 34.9%
